Target: Peptidyl-prolyl cis-trans isomerase FKBP1A (Homo sapiens, UniProt P62942)
Assay: Inhibition of FKBP12 rotamase activity

Sequence of Peptidyl-prolyl cis-trans isomerase FKBP1A (P62942 whole entry): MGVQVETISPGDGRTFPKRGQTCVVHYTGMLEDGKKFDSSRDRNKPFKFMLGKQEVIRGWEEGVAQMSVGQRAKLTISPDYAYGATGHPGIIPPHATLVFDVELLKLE

Structure (SMILES)	Ki
COc1cc2c(c(OC)c1)C1C3CCCC(C(=O)N1CC2)N3C(=O)C(=O)c1ccccc1O (centres undefined)	238 nM
COc1cc2c(c(OC)c1)C1C3CCCC(CN1CC2)N3C(=O)C(=O)c1cc(OC)c(OC)c(OC)c1 (centres undefined)	31700 nM
COc1cc2c(c(OC)c1)C1C3CCCC(C(=O)N1CC2)N3S(=O)(=O)c1ccc(Nc2cc(OC)c(OC)c(OC)c2)cc1 (centres undefined)	288 nM
COc1cc2c(c(OC)c1)C1C3CCCC(C(=O)N1CC2)N3C(=O)N(c1ccc([N+](=O)[O-])cc1)c1ccc([N+](=O)[O-])cc1 (centres undefined)	772 nM
COc1cc2c(c(OC)c1)C1C3CCCC(C(=O)N1CC2)N3C(=O)C(=O)c1cc(C(C)(C)C)c(O)c(C(C)(C)C)c1 (centres undefined)	20800 nM
COc1ccc2c(c1)CCN1C(=O)C3CCCC(C21)N3S(=O)(=O)Nc1cc(F)c(F)c(F)c1 (centres undefined)	236 nM
COc1cc2c(c(OC)c1)C1C3CCCC(C(=O)N1CC2)N3C(=O)N(c1ccccc1C)c1ccccc1C (centres undefined)	330 nM
COc1ccc2c(c1)CCN1C(=O)C3CCCC(C21)N3S(=O)(=O)Nc1cc(F)c(F)cc1F (centres undefined)	590 nM
CCN(CC)c1ccc(C(=O)C(=O)N2C3CCCC2C2c4c(cc(OC)cc4OC)CCN2C3=O)cc1 (centres undefined)	1000 nM
CCc1ccc(S(=O)(=O)N2C3CCCC2C2c4c(cc(OC)cc4OC)CCN2C3=O)cc1 (centres undefined)	266 nM
COc1cc2c(c(OC)c1)C1C3CCCC(C(=O)N1CC2)N3C(=O)N(c1ccc(F)cc1F)c1ccc(F)cc1F (centres undefined)	7000 nM
COc1ccc2c(c1)CCN1C(=O)C3CCCC(C21)N3S(=O)(=O)Nc1ccc(N2CCOCC2)nc1 (centres undefined)	591 nM
COc1ccc2c(c1)CCN1C(=O)C3CCCC(C21)N3S(=O)(=O)N1CCCCC1 (centres undefined)	360 nM
COc1cc(C(=O)C(=O)N2C3CCCC2C2c4cc(F)ccc4CCN2C3=O)cc(OC)c1OC (centres undefined)	225 nM
COc1cc2c(c(OC)c1)C1C3CCCC(C(=O)N1CC2)N3C(=O)N(c1ccccc1OC)c1ccccc1OC (centres undefined)	357 nM
COc1cccc2c1CCN1C(=O)C3CCCC(C21)N3C(=O)C(=O)c1cc(OC)c(OC)c(OC)c1 (centres undefined)	105 nM
COc1ccc2c(c1)CCN1C(=O)C3CCCC(C21)N3S(=O)(=O)Nc1cc(OC)c(OC)c(OC)c1 (centres undefined)	640 nM
COc1cc2c(c(OC)c1)C1C3CCCC(C(=O)N1CC2)N3C(=O)C(=O)c1ccccc1Cl (centres undefined)	583 nM
COc1cc(C(=O)C(=O)N2C3CCCC2C2c4ccccc4CCN2C3=O)cc(OC)c1OC (centres undefined)	217 nM
COc1cc2c(c(OC)c1)C1C3CCCC(C(=O)N1CC2)N3C(=O)N(c1ccccc1)c1ccccc1 (centres undefined)	2700 nM
COc1cc2c(c(OC)c1)C1C3CCCC(C(=O)N1CC2)N3C(=O)Cc1ccc(Cl)cc1 (centres undefined)	3100 nM
COc1cc2c(c(OC)c1)C1C3CCCC(C(=O)N1CC2)N3C(=O)C(=O)c1cc2ccccc2[nH]1 (centres undefined)	2300 nM
COc1cc2c(c(OC)c1)C1C3CCCC(C(=O)N1CC2)N3C(=O)C(=O)c1ccc(Cl)cc1Cl (centres undefined)	586 nM
COc1cc2c(c(OC)c1)C1C3CCCC(C(=O)N1CC2)N3C(=O)C(=O)c1ccco1 (centres undefined)	279 nM
COc1ccc2c(c1)CCN1C(=O)C3CCCC(C21)N3S(=O)(=O)Nc1ccc(Cl)nc1 (centres undefined)	360 nM
COc1cc2c(c(OC)c1)C1C3CCCC(C(=O)N1CC2)N3C(=O)C(=O)c1cccc(Cl)c1Cl (centres undefined)	282 nM
COc1cc2c(c(OC)c1)C1C3CCCC(C(=O)N1CC2)N3S(=O)(=O)c1ccccc1 (centres undefined)	244 nM

The remaining compounds from weak to strong by Ki, led by results:

Ki	Structure (SMILES)
210 nM	COc1ccc2c(c1)CCN1C(=O)C3CCCC(C21)N3S(=O)(=O)Nc1ccc(OC)nc1 (centres undefined)
208 nM	COc1cc2c(c(OC)c1)C1C3CCCC(C(=O)N1CC2)N3C(=O)C(O)c1ccc(Cl)cc1 (centres undefined)
201 nM	COc1cc(C(=O)C(=O)N2C3CCCC2C2c4c(F)cccc4CCN2C3=O)cc(OC)c1OC (centres undefined)
183 nM	COc1ccc2c(c1)CCN1C(=O)C3CCCC(C21)N3S(=O)(=O)Nc1ccc(F)nc1 (centres undefined)
171 nM	COc1cc(C(=O)C(=O)N2C3CCCC2C2c4ccc(Cl)cc4CCN2C3=O)cc(OC)c1OC (centres undefined)
156 nM	COc1cc2c(c(OC)c1)C1C3CCCC(C(=O)N1CC2)N3S(=O)(=O)c1ccc(-c2ccc(Cl)c(Cl)c2)cc1 (centres undefined)
153 nM	COc1cc2c(c(OC)c1)C1C3CCCC(C(=O)N1CC2)N3C(=O)C(=O)c1cc(Cl)ccc1Cl (centres undefined)
152 nM	COc1cc(C(=O)C(=O)N2C3CCCC2C2c4cccc(Cl)c4CCN2C3=O)cc(OC)c1OC (centres undefined)
150 nM	COc1ccc2c(c1)CCN1C(=O)C3CCCC(C21)N3S(=O)(=O)Nc1ccc(F)c(F)c1 (centres undefined)
143 nM	COc1ccc2c(c1)CCN1C(=O)C3CCCC(C21)N3C(=O)C(=O)c1cc(OC)c(OC)c(OC)c1 (centres undefined)
131 nM	COc1ccc(C(=O)C(=O)N2C3CCCC2C2c4c(cc(OC)cc4OC)CCN2C3=O)cc1 (centres undefined)
126 nM	COc1cc(C(=O)C(=O)N2C3CCCC2C2c4cc(Cl)ccc4CCN2C3=O)cc(OC)c1OC (centres undefined)
123 nM	CCc1ccc(C(=O)C(=O)N2C3CCCC2C2c4c(cc(OC)cc4OC)CCN2C3=O)cc1 (centres undefined)
123 nM	COc1ccc2c(c1)CCN1C(=O)C3CCCC(C21)N3S(=O)(=O)N1C[C@@H](C)O[C@@H](C)C1 (some centres undefined)
110 nM	COc1cc2c(c(OC)c1)C1C3CCCC(C(=O)N1CC2)N3C(=O)C(=O)c1cccnc1 (centres undefined)
110 nM	COc1cc2c(c(OC)c1)C1C3CCCC(C(=O)N1CC2)N3C(=O)C(=O)c1ccc(F)cc1 (centres undefined)

Ki	Structure (SMILES)
107 nM	COc1cc2c(c(OC)c1)C1C3CCCC(C(=O)N1CC2)N3C(=O)C(=O)c1cccs1 (centres undefined)
104 nM	COc1cc2c(c(OC)c1)C1C3CCCC(C(=O)N1CC2)N3S(=O)(=O)c1cccc(C)c1 (centres undefined)
100 nM	COc1cc2c(c(OC)c1)C1C3CCCC(C(=O)N1CC2)N3C(=O)C(=O)c1ccccc1 (centres undefined)
92 nM	COc1cc2c(c(OC)c1)C1C3CCCC(C(=O)N1CC2)N3S(=O)(=O)c1ccc(Br)cc1 (centres undefined)
91 nM	COc1cc2c(c(OC)c1)C1C3CCCC(C(=O)N1CC2)N3C(=O)C(F)(F)c1cc(OC)c(OC)c(OC)c1 (centres undefined)
85 nM	COc1cc(C(=O)C(=O)N2C3CCCC2C2c4cc(C)ccc4CCN2C3=O)cc(OC)c1OC (centres undefined)
84 nM	COc1cc2c(c(OC)c1)C1C3CCCC(C(=O)N1CC2)N3S(=O)(=O)c1ccc(C)cc1 (centres undefined)
82 nM	COc1cc2c(c(OC)c1)C1C3CCCC(C(=O)N1CC2)N3S(=O)(=O)c1ccc(C#N)cc1 (centres undefined)
72 nM	COc1cc2c(c(OC)c1)C1C3CCCC(C(=O)N1CC2)N3C(=O)C(=O)c1ccc(Cl)cc1 (centres undefined)
71 nM	COc1cc2c(c(OC)c1)C1C3CCCC(C(=O)N1CC2)N3C(=O)C(=O)c1ccc(Br)cc1 (centres undefined)
69 nM	COc1cc2c(c(OC)c1)C1C3CCCC(C(=O)N1CC2)N3C(=O)C(=O)c1cc(OC)c(OC)c(OC)c1 (centres undefined)
60 nM	COc1cc2c(c(OC)c1)C1C3CCCC(C(=O)N1CC2)N3C(=O)C(=O)c1ccc(OC)c(OC)c1 (centres undefined)
54 nM	COc1cc2c(c(OC)c1)C1C3CCCC(C(=O)N1CC2)N3S(=O)(=O)c1cccc(Br)c1 (centres undefined)
46 nM	COc1cc2c(c(OC)c1)C1C3CCCC(C(=O)N1CC2)N3C(=O)C(=O)c1cccc(Cl)c1 (centres undefined)
34 nM	COc1cc(OC)cc(C(=O)C(=O)N2C3CCCC2C2c4c(cc(OC)cc4OC)CCN2C3=O)c1 (centres undefined)
34 nM	COc1cc2c(c(OC)c1)C1C3CCCC(C(=O)N1CC2)N3C(=O)C(=O)c1ccc(Cl)c(Cl)c1 (centres undefined)
